Data published in patent US10420341B2, “Herbicidal phenylpyrimidines” (BASF SE, priority 2015, dated 2019).

Experiments:
AMARE = test: greenhouse post-emergence herbicidal test; type: in vivo, Amaranthus retroflexus; conditions: post-emergence method, scale from 0 to 100
Summary of the method: (§1)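 Scoring 0 (no damage) to 100 (no emergence or total destruction of aerial parts), taken over a 2 to 4 week period after post-emergence treatment at 3 to 15 cm plant height. Compounds applied as aqueous suspension or emulsion; greenhouse temperature 10-25° C. or 20-35° C. depending on species.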

ABUTH = test: greenhouse post-emergence herbicidal test; type: in vivo, Abutilon theophrasti; conditions: post-emergence method, scale from 0 to 100
Text: (§2) The seeds of the test plants were sown separately for each species. For the post-emergence treatment, the test plants were first grown to a height of 3 to 15 cm, depending on the plant habit, and only then treated with the active ingredients which had been suspended or emulsified in water. For this purpose, the test plants were either sown directly and grown in the same containers, or they were first grown separately as seedlings and transplanted into the test containers a few days prior to treatment. Depending on the species, the plants were kept at 10-25° C. or 20-35° C., respectively. The test period extended over 2 to 4 weeks. During this time, the plants were tended, and their response to the individual treatments was evaluated. Evaluation was carried out using a scale from 0 to 100. 100 means no emergence of the plants, or complete destruction of at least the aerial moieties, and 0 means no damage, or normal course of growth. […] The plants used in the greenhouse experiments were of the following species: [table]

ECHCG [1] = test: greenhouse pre-emergence herbicidal test; type: in vivo, Echinocloa crus-galli; conditions: pre-emergence method, scale from 0 to 100
Summary of the method: (§3)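 Species-dependent temperatures of 10-25° C. or 20-35° C. were maintained for a 2 to 4 week test after pre-emergence nozzle application of compounds dispersed in water. Efficacy was scored 0-100, with 100 denoting no emergence or total aerial destruction.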

APESV = test: greenhouse pre-emergence herbicidal test; type: in vivo, Apera spica-venti; conditions: pre-emergence method, scale from 0 to 100
Summary of the method: as §3

ECHCG [2] = test: greenhouse post-emergence herbicidal test; type: in vivo, Echinocloa crus-galli; conditions: post-emergence method, scale from 0 to 100
Summary of the method: as §1

ALOMY [3] = test: greenhouse post-emergence herbicidal test; type: in vivo, Alopercurus myosuroides; conditions: post-emergence method, scale from 0 to 100
Summary of the method: as §1

POLCO = test: greenhouse post-emergence herbicidal test; type: in vivo, Polygonum convolvulus; conditions: post-emergence method, application rate 1000 g/ha, scale from 0 to 100
Text: as §2

ALOMY [4] = test: greenhouse pre-emergence herbicidal test; type: in vivo, Alopercurus myosuroides; conditions: pre-emergence method, application rate 500 g/ha, scale from 0 to 100
Text: The seeds of the test plants were sown separately for each species. For the pre-emergence treatment, the active ingredients, which had been suspended or emulsified in water, were applied directly after sowing by means of finely distributing nozzles. The containers were irrigated gently to promote germination and growth and subsequently covered with transparent plastic hoods until the plants had rooted. This cover caused uniform germination of the test plants, unless this had been impaired by the active ingredients. Depending on the species, the plants were kept at 10-25° C. or 20-35° C., respectively. The test period extended over 2 to 4 weeks. During this time, the plants were tended, and their response to the individual treatments was evaluated. Evaluation was carried out using a scale from 0 to 100. 100 means no emergence of the plants, or complete destruction of at least the aerial moieties, and 0 means no damage, or normal course of growth. […] The plants used in the greenhouse experiments were of the following species: [table]

With `CC(C)c1ncc(-c2ccccc2Cl)c(C(=O)O)n1` [example 32] the “herbicidal activity against AMARE” value (AMARE; application rate 1000 g/ha) was “good (A good herbicidal activity is given at values of at least 70)”, the “herbicidal activity against ABUTH” value (ABUTH; application rate 1000 g/ha) was “very good (a very good herbicidal activity is given at values of at least 85)” and the “herbicidal activity against ECHCG” value (ECHCG [1]; application rate 1000 g/ha) was “very good (a very good herbicidal activity is given at values of at least 85)”. For the same compound, the “herbicidal activity against APESV” value (APESV; application rate 1000 g/ha) was “very good (a very good herbicidal activity is given at values of at least 85)”.
In the case of `Cc1ccccc1-c1cnc(CC(C)C)nc1C(=O)O` [example 40], the “herbicidal activity against ABUTH” value (ABUTH; application rate 1000 g/ha) is reported as “very good (a very good herbicidal activity is given at values of at least 85)”, the “herbicidal activity against ECHCG” value (ECHCG [2]; application rate 1000 g/ha) is reported as “good (A good herbicidal activity is given at values of at least 70)” and the “herbicidal activity against APESV” value (APESV; application rate 1000 g/ha) is reported as “good (A good herbicidal activity is given at values of at least 70)”.
In the case of `CCC(C)c1ncc(-c2ccccc2C)c(C(=O)O)n1` (stereo not shown) [example 41], the “herbicidal activity against ABUTH” value (ABUTH; application rate 1000 g/ha) is reported as “very good (a very good herbicidal activity is given at values of at least 85)”, the “herbicidal activity against ECHCG” value (ECHCG [2]; application rate 1000 g/ha) is reported as “good (A good herbicidal activity is given at values of at least 70)” and the “herbicidal activity against APESV” value (APESV; application rate 1000 g/ha) is reported as “very good (a very good herbicidal activity is given at values of at least 85)”.
With `COc1ncc(-c2cc(C)ccc2C)c(C(=O)O)n1` [example 54] the “herbicidal activity against AMARE” value (AMARE; application rate 1000 g/ha) was “very good (a very good herbicidal activity is given at values of at least 85)”, the “herbicidal activity against ABUTH” value (ABUTH; application rate 1000 g/ha) was “good (A good herbicidal activity is given at values of at least 70)” and the “herbicidal activity against ALOMY” value (ALOMY [3]; application rate 1000 g/ha) was “very good (a very good herbicidal activity is given at values of at least 85)”. For the same compound, the “herbicidal activity against ECHCG” value (ECHCG [1]; application rate 1000 g/ha) was “very good (a very good herbicidal activity is given at values of at least 85)” and the “herbicidal activity against APESV” value (APESV; application rate 1000 g/ha) was “very good (a very good herbicidal activity is given at values of at least 85)”.
In the case of `CSc1ncc(-c2cccc(Cl)c2Cl)c(C(=O)O)n1` [example 90], the “herbicidal activity against AMARE” value (AMARE; application rate 2000 g/ha) is reported as “very good (a very good herbicidal activity is given at values of at least 85)”, the “herbicidal activity against ABUTH” value (ABUTH; application rate 2000 g/ha) is reported as “good (A good herbicidal activity is given at values of at least 70)” and the “herbicidal activity against ECHCG” value (ECHCG [2]; application rate 2000 g/ha) is reported as “very good (a very good herbicidal activity is given at values of at least 85)”.
`CSc1ncc(-c2ccc(F)cc2C)c(C(=O)O)n1` [example 94] was tested, and the “herbicidal activity against ABUTH” value (ABUTH; application rate 1000 g/ha) was “good (A good herbicidal activity is given at values of at least 70)”, the “herbicidal activity against POLCO” value (POLCO) was “very good (a very good herbicidal activity is given at values of at least 85)” and the “herbicidal activity against ECHCG” value (ECHCG [2]; application rate 1000 g/ha) was “very good (a very good herbicidal activity is given at values of at least 85)”.
With `O=C(O)c1nc(C2CC2)ncc1-c1ccccc1F` [example 132] the “herbicidal activity against ECHCG” value (ECHCG [2]; application rate 500 g/ha) was “very good (a very good herbicidal activity is given at values of at least 85)”, the “herbicidal activity against ALOMY” value (ALOMY [3]; application rate 500 g/ha) was “very good (a very good herbicidal activity is given at values of at least 85)” and the “herbicidal activity against ECHCG” value (ECHCG [1]; application rate 500 g/ha) was “very good (a very good herbicidal activity is given at values of at least 85)”. The “herbicidal activity against APESV” value (APESV; application rate 500 g/ha) was “very good (a very good herbicidal activity is given at values of at least 85)” and the “herbicidal activity against ALOMY” value (ALOMY [4]) was “very good (a very good herbicidal activity is given at values of at least 85)”.
With `O=C(O)c1nc(C2CC2)ncc1-c1cc(F)ccc1Cl` [example 142] the “herbicidal activity against ECHCG” value (ECHCG [2]; application rate 500 g/ha) was “very good (a very good herbicidal activity is given at values of at least 85)”, the “herbicidal activity against ALOMY” value (ALOMY [3]; application rate 500 g/ha) was “very good (a very good herbicidal activity is given at values of at least 85)” and the “herbicidal activity against ECHCG” value (ECHCG [1]; application rate 500 g/ha) was “very good (a very good herbicidal activity is given at values of at least 85)”. For the same compound, the “herbicidal activity against APESV” value (APESV; application rate 500 g/ha) was “very good (a very good herbicidal activity is given at values of at least 85)” and the “herbicidal activity against ALOMY” value (ALOMY [4]) was “very good (a very good herbicidal activity is given at values of at least 85)”.
With `O=C(O)c1nc(C2CC2)ncc1-c1ccc(F)cc1Cl` [example 146] the “herbicidal activity against ALOMY” value (ALOMY [3]; application rate 500 g/ha) was “very good (a very good herbicidal activity is given at values of at least 85)”, the “herbicidal activity against ECHCG” value (ECHCG [1]; application rate 500 g/ha) was “very good (a very good herbicidal activity is given at values of at least 85)” and the “herbicidal activity against APESV” value (APESV; application rate 500 g/ha) was “very good (a very good herbicidal activity is given at values of at least 85)”. The “herbicidal activity against ALOMY” value (ALOMY [4]) was “very good (a very good herbicidal activity is given at values of at least 85)”.
For `O=C(O)c1nc(C2CC2)ncc1-c1cccc(F)c1Cl` [example 150], the “herbicidal activity against ABUTH” value (ABUTH; application rate 1000 g/ha) was “very good (a very good herbicidal activity is given at values of at least 85)”, the “herbicidal activity against ALOMY” value (ALOMY [3]; application rate 1000 g/ha) was “very good (a very good herbicidal activity is given at values of at least 85)” and the “herbicidal activity against ECHCG” value (ECHCG [1]; application rate 1000 g/ha) was “very good (a very good herbicidal activity is given at values of at least 85)”. For the same compound, the “herbicidal activity against APESV” value (APESV; application rate 1000 g/ha) was “very good (a very good herbicidal activity is given at values of at least 85)”.
In the case of `Cc1cccc(C)c1-c1cnc(C2CC2)nc1C(=O)O` [example 162], the “herbicidal activity against ECHCG” value (ECHCG [2]; application rate 500 g/ha) is reported as “very good (a very good herbicidal activity is given at values of at least 85)”, the “herbicidal activity against ALOMY” value (ALOMY [3]; application rate 500 g/ha) is reported as “very good (a very good herbicidal activity is given at values of at least 85)” and the “herbicidal activity against ECHCG” value (ECHCG [1]; application rate 500 g/ha) is reported as “very good (a very good herbicidal activity is given at values of at least 85)”. The “herbicidal activity against APESV” value (APESV; application rate 500 g/ha) was “very good (a very good herbicidal activity is given at values of at least 85)” and the “herbicidal activity against ALOMY” value (ALOMY [4]) was “very good (a very good herbicidal activity is given at values of at least 85)”.
With `COc1cc(C)c(-c2cnc(C3CC3)nc2C(=O)O)cc1C` [example 169] the “herbicidal activity against ABUTH” value (ABUTH; application rate 1000 g/ha) was “very good (a very good herbicidal activity is given at values of at least 85)”, the “herbicidal activity against ECHCG” value (ECHCG [2]; application rate 1000 g/ha) was “good (A good herbicidal activity is given at values of at least 70)” and the “herbicidal activity against APESV” value (APESV; application rate 1000 g/ha) was “very good (a very good herbicidal activity is given at values of at least 85)”.
With `COC(=O)c1nc(C2CC2)ncc1-c1ccc(F)cc1Cl` [example 207] the “herbicidal activity against ALOMY” value (ALOMY [3]; application rate 500 g/ha) was “good (A good herbicidal activity is given at values of at least 70)”, the “herbicidal activity against ECHCG” value (ECHCG [1]; application rate 500 g/ha) was “very good (a very good herbicidal activity is given at values of at least 85)” and the “herbicidal activity against APESV” value (APESV; application rate 500 g/ha) was “very good (a very good herbicidal activity is given at values of at least 85)”. For the same compound, the “herbicidal activity against ALOMY” value (ALOMY [4]) was “very good (a very good herbicidal activity is given at values of at least 85)”.
`COC(=O)c1nc(C2CC2)ncc1-c1cc(C)c(OC)cc1C` [example 232] was tested, and the “herbicidal activity against ABUTH” value (ABUTH; application rate 1000 g/ha) was “very good (a very good herbicidal activity is given at values of at least 85)”, the “herbicidal activity against ECHCG” value (ECHCG [2]; application rate 1000 g/ha) was “very good (a very good herbicidal activity is given at values of at least 85)” and the “herbicidal activity against ECHCG” value (ECHCG [1]; application rate 1000 g/ha) was “very good (a very good herbicidal activity is given at values of at least 85)”. For the same compound, the “herbicidal activity against APESV” value (APESV; application rate 1000 g/ha) was “very good (a very good herbicidal activity is given at values of at least 85)”.
With `Cc1ccccc1-c1cnc(C2CCC2)nc1C(=O)O` [example 263] the “herbicidal activity against ABUTH” value (ABUTH; application rate 1000 g/ha) was “very good (a very good herbicidal activity is given at values of at least 85)”, the “herbicidal activity against ECHCG” value (ECHCG [2]; application rate 1000 g/ha) was “very good (a very good herbicidal activity is given at values of at least 85)” and the “herbicidal activity against APESV” value (APESV; application rate 1000 g/ha) was “good (A good herbicidal activity is given at values of at least 70)”.
